Key:
[1] = biological target: T1, Tyrosine-protein kinase TXK (Homo sapiens) (UniProt P42681); assay: Displacement of competitive tracer from RLK (unknown origin) assessed as target occupancy at […] preincubated for 15 mins measured for 24 hrs relative to control; settings: dose 1.5 µM
T1 sequence (whole entry): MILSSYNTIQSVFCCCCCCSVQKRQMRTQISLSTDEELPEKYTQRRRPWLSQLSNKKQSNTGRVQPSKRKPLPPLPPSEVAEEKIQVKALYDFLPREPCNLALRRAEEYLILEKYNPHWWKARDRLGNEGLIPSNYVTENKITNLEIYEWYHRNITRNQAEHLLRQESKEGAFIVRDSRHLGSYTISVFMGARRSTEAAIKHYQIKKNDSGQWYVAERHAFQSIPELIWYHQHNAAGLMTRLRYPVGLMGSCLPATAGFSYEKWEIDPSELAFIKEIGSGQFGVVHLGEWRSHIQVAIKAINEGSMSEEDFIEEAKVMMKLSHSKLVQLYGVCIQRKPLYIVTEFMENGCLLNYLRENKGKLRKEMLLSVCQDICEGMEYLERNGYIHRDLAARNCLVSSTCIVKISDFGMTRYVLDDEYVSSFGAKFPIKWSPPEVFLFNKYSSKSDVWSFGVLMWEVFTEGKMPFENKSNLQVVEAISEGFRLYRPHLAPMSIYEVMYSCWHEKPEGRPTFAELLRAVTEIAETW

[2] = Toxicity in female Beagle dog assessed as NOAEL; design: species or system Canis lupus familiaris; settings: in vivo
[3] = Drug concentration in plasma of collagen-induced arthritis Lewis rat model 3 mg/kg/day, po measured after 12 hrs post-collection of plasma; assay type: ADME, organism-based; settings: in vivo, BLD = below limit of detection
[4] = biological target: T2, Cytoplasmic tyrosine-protein kinase BMX (Homo sapiens) (UniProt P51813); assay: Displacement of competitive tracer from BMX (unknown origin) assessed as target occupancy at […] preincubated for 15 mins measured for 6 hrs relative to control; settings: dose 1.5 µM
T2 sequence (whole entry): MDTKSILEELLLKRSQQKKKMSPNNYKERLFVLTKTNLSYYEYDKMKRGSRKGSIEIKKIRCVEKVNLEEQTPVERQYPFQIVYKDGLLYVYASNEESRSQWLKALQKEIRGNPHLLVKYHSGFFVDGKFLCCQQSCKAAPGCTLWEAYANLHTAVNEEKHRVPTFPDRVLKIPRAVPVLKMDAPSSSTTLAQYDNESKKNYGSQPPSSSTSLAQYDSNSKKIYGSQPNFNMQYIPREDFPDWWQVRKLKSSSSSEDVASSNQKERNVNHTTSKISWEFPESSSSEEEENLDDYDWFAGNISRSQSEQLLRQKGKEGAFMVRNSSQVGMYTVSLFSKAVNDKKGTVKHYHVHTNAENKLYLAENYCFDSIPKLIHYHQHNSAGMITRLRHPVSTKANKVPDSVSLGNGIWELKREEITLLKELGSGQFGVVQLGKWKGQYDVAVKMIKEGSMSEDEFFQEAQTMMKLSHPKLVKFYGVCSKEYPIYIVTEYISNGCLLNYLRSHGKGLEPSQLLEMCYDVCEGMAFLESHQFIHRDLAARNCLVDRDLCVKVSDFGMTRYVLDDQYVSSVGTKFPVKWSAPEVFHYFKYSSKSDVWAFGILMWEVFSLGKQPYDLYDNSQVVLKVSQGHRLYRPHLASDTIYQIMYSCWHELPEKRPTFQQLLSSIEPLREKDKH

[5] = biological target: Adenosine receptor A3 (Homo sapiens) (UniProt P0DMS8); assay: Displacement of [125I]AB-MECA from recombinant human Adenosine receptor A3 at 10 uM incubated for 120 mins by radiometric scintillation assay relative to control
[6] = biological target: T3, Tyrosine-protein kinase Tec (Homo sapiens) (UniProt P42680); assay: Displacement of competitive tracer from TEC (unknown origin) assessed as target occupancy at […] preincubated for 15 mins measured for 1 hr relative to control; settings: dose 1.5 µM
T3 sequence (whole entry): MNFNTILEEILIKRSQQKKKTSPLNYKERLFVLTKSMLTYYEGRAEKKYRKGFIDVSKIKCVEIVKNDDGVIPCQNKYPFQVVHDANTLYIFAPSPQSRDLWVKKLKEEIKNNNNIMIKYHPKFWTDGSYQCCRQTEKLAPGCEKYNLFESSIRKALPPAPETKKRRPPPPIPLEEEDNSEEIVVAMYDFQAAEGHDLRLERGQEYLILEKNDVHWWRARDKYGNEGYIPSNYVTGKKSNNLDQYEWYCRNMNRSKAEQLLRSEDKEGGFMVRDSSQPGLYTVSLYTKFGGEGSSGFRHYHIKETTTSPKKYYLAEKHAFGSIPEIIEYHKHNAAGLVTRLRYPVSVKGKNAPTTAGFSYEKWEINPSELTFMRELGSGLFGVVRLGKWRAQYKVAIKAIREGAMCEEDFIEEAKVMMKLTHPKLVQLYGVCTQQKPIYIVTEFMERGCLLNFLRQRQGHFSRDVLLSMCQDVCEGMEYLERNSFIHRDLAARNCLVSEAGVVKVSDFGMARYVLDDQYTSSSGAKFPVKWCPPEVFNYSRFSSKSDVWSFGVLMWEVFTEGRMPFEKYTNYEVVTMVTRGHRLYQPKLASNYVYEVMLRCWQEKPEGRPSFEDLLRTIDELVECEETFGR

[7] = Inhibition of IL-2 production in TCR-stimulated T-cells in human whole blood; assay type: functional, tissue-based; settings: T-cell
[8] = Drug concentration in plasma of collagen-induced arthritis Lewis rat model 10 mg/kg/day, po measured after 12 hrs post-collection of plasma; assay type: ADME, organism-based
[9] = Inhibition of EGF-stimulated AP-1 activation in human ME-180 cells by EGFR-based reporter assay; assay type: cell-based
[10] = biological target: T4, Tyrosine-protein kinase ITK/TSK (Homo sapiens) (UniProt Q08881); assay: Displacement of competitive tracer from ITK (unknown origin) assessed as target occupancy at […] preincubated for 15 mins measured for 6 hrs relative to control; settings: dose 1.5 µM
T4 sequence (whole entry): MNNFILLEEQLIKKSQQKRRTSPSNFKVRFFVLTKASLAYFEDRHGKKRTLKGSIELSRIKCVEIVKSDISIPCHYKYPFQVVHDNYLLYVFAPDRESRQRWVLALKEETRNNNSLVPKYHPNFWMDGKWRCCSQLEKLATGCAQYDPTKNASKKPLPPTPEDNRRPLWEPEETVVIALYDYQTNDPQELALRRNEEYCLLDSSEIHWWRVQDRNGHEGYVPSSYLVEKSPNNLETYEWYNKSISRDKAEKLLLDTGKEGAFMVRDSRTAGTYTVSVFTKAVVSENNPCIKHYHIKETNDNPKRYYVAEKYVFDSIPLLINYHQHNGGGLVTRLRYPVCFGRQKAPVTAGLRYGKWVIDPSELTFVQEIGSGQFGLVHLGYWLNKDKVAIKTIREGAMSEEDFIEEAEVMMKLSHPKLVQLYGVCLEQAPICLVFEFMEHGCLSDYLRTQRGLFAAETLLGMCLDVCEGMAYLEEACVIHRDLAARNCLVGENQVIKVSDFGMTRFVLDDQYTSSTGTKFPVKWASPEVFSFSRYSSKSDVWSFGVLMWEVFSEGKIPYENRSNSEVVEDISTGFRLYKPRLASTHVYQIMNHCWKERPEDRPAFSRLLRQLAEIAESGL

Chain of Adenosine receptor A3 (Homo sapiens) (P0DMS8 whole entry): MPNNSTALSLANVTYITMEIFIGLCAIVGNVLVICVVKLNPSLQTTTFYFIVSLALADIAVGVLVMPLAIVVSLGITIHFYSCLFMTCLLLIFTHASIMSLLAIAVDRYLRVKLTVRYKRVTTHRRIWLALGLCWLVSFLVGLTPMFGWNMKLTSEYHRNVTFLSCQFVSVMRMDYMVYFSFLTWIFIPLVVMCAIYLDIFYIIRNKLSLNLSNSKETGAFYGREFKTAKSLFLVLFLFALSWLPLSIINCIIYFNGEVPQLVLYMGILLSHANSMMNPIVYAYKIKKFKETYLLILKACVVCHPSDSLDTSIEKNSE

Activity [1]: 85%
Cp [3]: Bld
Activity [4]: 82%
inhibition [5]: > 50%
Activity [6]: 87%
IC50 [7]: > 5 µM
concentration at 12 h [8]: 10 ng/mL
IC50 [9]: > 5 µM
Activity [10]: 28%
Compound: CC(C)(C)/C=C(\C#N)C(=O)N1CCC[C@@H](n2nc(-c3ccc(Oc4ccccc4)cc3F)c3c(N)ncnc32)C1 [ATUZABRUTINIB]
NOAEL [2]: 120 mg/kg

Reference: ChEMBL document CHEMBL5104103 (J Med Chem, 2022)
